Structures can show the parent of a compound that is named as a salt.
Assays:
TAC mice = test: Acute effect on mouse models of heart failure (TAC, single injection 5 weeks later); assay type: in vivo; settings: TAC mice 5 weeks after TAC, 50 mg/kg, echocardiography before and 10 minutes after injection
Experimental: Transverse aortic constriction (TAC) was performed as described previously [Date, et al. (2002) The antioxidant N-2-mercaptopropionyl glycine attenuates left ventricular hypertrophy in in vivo murine pressure-overload model. J Am Coll Cardiol 39: 907-912.]. Briefly, 8- to 10-week-old mice were anesthetized with anesthetic (0.3 mg/kg of medetomidine, 4.0 mg/kg of midazolam, and 5.0 mg/kg of butorphanol) administered intraperitoneally, and the proximal portion of the sternum was cut open to visualize the aorta. A 7-0 silk suture was placed around the aortic arch distal to the brachiocephalic artery. The suture was tightened firmly around a blunt 26-gauge needle placed adjacent to the aorta. The needle was then removed, and the chest and overlying skin were closed. Sham-operated mice underwent an identical surgical procedure without ligation of the aortic arch. At the end of the operation, 0.3 mg/kg of atipamezole was administered subcutaneously to reverse medetomidine. FIG. 1 is a schematic diagram of TAC.
To analyze the cardiac function, we used Vevo® 2100 (VISUALSONICS) at the indicated time points after TAC operation. Mice were kept under inhalation anesthesia with 2.5% isoflurane. LV function was measured in M mode of the parasternal short-axis view.
Mice were subjected to TAC at 8 weeks of age. Five weeks later (at 13 weeks of age), the mice were injected with KUS121 (50 mg/kg), and left ventricular ejection fraction (LVEF), left ventricular end-diastolic diameter (LVDd), and heart rate (HR) were assessed by echocardiography before and 10 minutes after the injection.
Mice were subjected to TAC at 8 weeks of age. Five weeks later (at 13 weeks of age), the mice were injected with KUS121 (50 mg/kg), and left ventricular pressure was measured by catheterization before and 10 minutes after the injection. The left ventricular pressure was 46.6 mmHg before KUS121 administration, and increased to 128.9 mmHg 10 minutes after the administration. In addition, Max/min dp/dt was changed from 1295.5/−621.4 mmHg/s to 3972.8/−1311.1 mmHg/s. […] Left ventricular ejection fraction was then measured over time and was 37% before KUS121 administration, increased to 67% 5 minutes after the administration, and returned to the baseline about 2 hours after the administration (FIG. 16).
Mice were subjected to TAC at 8 weeks of age. Five weeks later (at 13 weeks of age), the mice were injected with KUS187 (50 mg/kg), and left ventricular ejection fraction was assessed by echocardiography before and 10 minutes after the injection.

[1] = system: beagle dog models of heart failure; test: Beagle dog models of rapid ventricular pacing-induced heart failure; assay type: in vivo; settings: infusion per FIG. 17 protocol
Experimental: After induction of general anesthesia with thiopental sodium (20 mg/kg, i.v.: 0.5 g of Labonal injection, Nipro ES Pharma Corporation) in 10- to 12-month-old male beagle dogs (9.80-11.50 kg), a tracheal cannula was inserted into the airway, and artificial respiration was performed with an Acoma veterinary ventilator (PRO-45Va, Acoma Medical Corporation). Anesthesia was maintained by inhalation of a gas mixture (Air:O2=3:0.2) and 1.0 to 2.5% isoflurane (isoflurane inhalation solution “Pfizer”, Mylan Seiyaku Co., Ltd.) using an Acoma animal anesthesia machine (NS-5000A, Acoma Medical Industry Co., Ltd.) to maintain a constant depth of anesthesia. An incision was made in the right side of the neck of the animal, an animal internal cardiac pacemaker (SIP-501, Star Medical Corporation) was implanted subcutaneously, a retractable screw-in reed (Tendril STS J, St. Jude Medical, Inc.) was inserted through the right jugular vein under X-ray fluoroscopy (BV Pulsera, Koninklijke Philips N.V.), and the tip was implanted in the right ventricular wall. Pacing was started at 244-251 beats/min on postoperative day 1. Dogs with ejection fraction (EF) decreasing to 30-50% at 4 weeks after pacemaker activation were considered to have heart failure and subjected to analysis.
Echocardiography was performed using a general-purpose ultrasound imaging system (Vivid S6, GE Medical Systems). The left ventricular end-diastolic diameter (LVIDd), left ventricular end-systolic diameter (LVIDs), ejection fraction (EF), and left ventricular internal diameter shortening (% FS) were measured in M-mode by placing a sector probe (10 MHz) on the chest.
Dogs were anesthetized intravenously with 14.5 to 22.3 mg/kg of secobarbital sodium (Injectable Ionar sodium (0.2), Nichi-Iko Co., Ltd.), followed by subcutaneous administration of 0.2 mg/kg of meloxicam (Metacam 0.5% injection, Boehringer Ingelheim Animal Health Japan Co.). A tracheal tube was inserted into the airway and connected to an Acoma animal ventilator (PRO-45Va, Acoma Medical Industry Co., Ltd.). The ventilator was set at a respiratory rate of 14-18 strokes/min and a tidal volume of 10-20 mL/kg/stroke, and respiration was controlled by an Acoma animal anesthesia machine (NS-5000A, Acoma Medical Industry Co., Ltd.) using a gas mixture (FiO2=0.3-1.0). The exhaled CO2 partial pressure was monitored using an exhaled carbon dioxide monitor (OLG-2800, Nihon Kohden Corporation). The animals were fixed in the dorsal position and the thighs and neck were shom. Anesthesia was maintained by continuous intravenous infusion of sodium secobarbital (5 mg/kg/hr) through the radial cutaneous vein using a Telfusion syringe pump (STC-523, Terumo Corporation). A Swan-Ganz catheter was inserted through the left femoral vein. A catheter for coronary angiography was inserted through the left femoral artery. A 5F sheath for arterial blood sampling was placed in the right femoral artery. A catheter for PV-loop analysis was inserted from the left internal carotid artery. An 8F occlusion balloon was placed from the right femoral vein for occlusion testing. In addition, KUS121 was administered from the left common jugular vein.
Beagle dog models of heart failure were prepared by rapid ventricular pacing. Cardiac function was assessed by echocardiography before KUS121 administration and after continuous infusion at 40 mg/h. KUS121 increased LVEF, even if it was based on either of the Teichholz method and the modified-Simpson's method, and increased % FS (FIG. 18). Changes in heart rate, systolic blood pressure, diastolic blood pressure, left ventricular ejection fraction, mean pulmonary artery pressure, pulmonary capillary wedge pressure, left ventricular end-diastolic pressure, and adjusted dp/dt are shown in FIGS. 19 to 21. […]

Row | Structure (SMILES) | left ventricular ejection fraction (LVEF) (TAC mice) | heart rate [1] | left ventricular systolic function [1]
1 | CCCCOc1c(C=O)cc(C)cc1-c1ccc(/N=N/c2cc(S(=O)(=O)O)c3ccccc3c2N)cn1 [KUS187, 4-amino-3-[6-(3-formyl-2-butoxy-5-methylphenyl)pyridine-3-ylazo]naphthalene-1-sulfonic acid sodium salt] | increased | – | –
2 | CC(CCc1ccc(O)cc1)NCCc1ccc(O)c(O)c1 (stereo not drawn) [dobutamine, reference compound] | – | increased heart rate | improved

— patent US20250057823A1, “COMPOSITION FOR IMPROVING CARDIAC FUNCTION” (Kyoto University, priority 2021, published 2025)
